# Test results from patent US20080207708A1, “Oxazole and Thiazole Compounds and Their Use in the Treatment of Pge2 Mediated Disorders” (GLAXO GROUP LIMITED, priority 2005, published 2008).
# Structures can show the parent of a compound that is named as a salt.
# Columns and labels:
# EP1 receptors [1] = biological target: T1, EP1 receptors (Homo sapiens, UniProt P34995); assay: Binding assay for the human prostanoid EP1 receptor (competition with [3H]-PGE2); set-up: expressed in transfected cells; host or cells: CHO-K1 cells, membrane fraction; conditions: [3H]-PGE2 competition; averages of a number of experiments; read-out: pIC50 value, binding assay for the human prostanoid EP1 receptor (converted)
# T1 sequence (P34995 1-402): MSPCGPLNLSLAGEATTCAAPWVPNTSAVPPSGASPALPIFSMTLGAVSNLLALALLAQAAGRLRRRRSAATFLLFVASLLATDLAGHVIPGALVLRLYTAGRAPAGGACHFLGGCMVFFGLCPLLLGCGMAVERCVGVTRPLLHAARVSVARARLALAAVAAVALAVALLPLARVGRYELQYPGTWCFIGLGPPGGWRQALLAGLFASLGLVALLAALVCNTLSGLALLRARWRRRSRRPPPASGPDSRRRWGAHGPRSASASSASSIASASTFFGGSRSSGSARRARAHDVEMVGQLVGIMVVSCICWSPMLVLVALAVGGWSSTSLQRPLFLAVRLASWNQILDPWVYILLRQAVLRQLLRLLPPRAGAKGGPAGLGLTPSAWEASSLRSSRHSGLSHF
# Method in brief: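 Membranes from CHO-K1 cells stably expressing human EP1 incubated with compounds and [3H]-PGE2 (3 nM final) for 30 min at 30° C in MES buffer with EDTA and MgCl2, pH 6. Bound radioactivity measured after filtration; IC50 from nonlinear fit of specific binding inhibition.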
# EP1 receptors [2] = biological target: T1, EP1 receptors; assay: human EP1 calcium mobilisation assay (CHO-K1 cells, FLIPR, PGE2); type: cell-based; set-up: expressed in transfected cells; host or cells: CHO-K1 cells, pCIN vector; conditions: free bases or sodium salts; averages of a number of experiments; read-out: functional pKi value, human EP1 calcium mobilisation assay (converted)
# Description: Briefly, the antagonist properties of compounds are assessed by their ability to inhibit the mobilisation of intracellular calcium ([Ca^2+]i) in response to activation of EP1 or EP3 receptors by the natural agonist hormone prostaglandin E2 (PGE2). Increasing concentrations of antagonist reduce the amount of calcium that a given concentration of PGE2 can mobilise. The net effect is to displace the PGE2 concentration-effect curve to higher concentrations of PGE2. The amount of calcium produced is assessed using a calcium-sensitive fluorescent dye such as Fluo-4, AM and a suitable instrument such as a Fluorimetric Imaging Plate Reader (FLIPR). Increasing amounts of [Ca^2+]i produced by receptor activation increase the amount of fluorescence produced by the dye and give rise to an increasing signal. The signal may be detected using the FLIPR instrument and the data generated may be analysed with suitable curve-fitting software.
# The human EP1 or EP3 calcium mobilisation assay (hereafter referred to as ‘the calcium assay’) utilises Chinese hamster ovary-K1 (CHO-K1) cells into which a stable (pCIN; BioTechniques 20 (1996): 102-110) vector containing either EP1 or EP3 cDNA has previously been transfected. Cells are cultured in suitable flasks containing culture medium such as DMEM:F-12 supplemented with 10% v/v foetal calf serum, 2 mM L-glutamine, 0.25 mg/ml geneticin, 100 μM flurbiprofen and 10 µg/ml puromycin. For assay, cells are harvested using a proprietary reagent that dislodges cells such as Versene. Cells are re-suspended in a suitable quantity of fresh culture media for introduction into a 384-well plate. Following incubation for 24 hours at 37° C. the culture media is replaced with a medium containing Fluo-4 and the detergent pluronic acid, and a further incubation takes place. Concentrations of compounds are then added to the plate in order to construct concentration-effect curves. This may be performed on the FLIPR in order to assess the agonist properties of the compounds. Concentrations of PGE2 are then added to the plate in order to assess the antagonist properties of the compounds. The data so generated may be analysed by means of a computerised curve-fitting routine. The concentration of compound that elicits a half-maximal inhibition of the calcium mobilisation induced by PGE2 (pIC50) may then be estimated.
Compound,IC50 (EP1 receptors [1]) [nM],Ki (EP1 receptors [2]) [nM]
"O=C(NCc1cccnc1)c1csc(Cc2cc(Cl)ccc2OCc2ccccc2)n1 [Example 95, 2-({5-Chloro-2-[(phenylmethyl)oxy]phenyl}methyl)-N-(3-pyridinylmethyl)-1,3-thiazole-4-carboxamide]",≤ 1000,< 1000
"O=C(NCc1ccncc1)c1csc(Cc2cc(Cl)ccc2OCc2ccccc2)n1 [Example 96, 2-({5-Chloro-2-[(phenylmethyl)oxy]phenyl}methyl)-N-(4-pyridinylmethyl)-1,3-thiazole-4-carboxamide]",≤ 1000,< 1000
"CNC(=O)c1csc(Cc2cc(Cl)ccc2OCc2ccccc2)n1 [Example 97, 2-({5-Chloro-2-[(phenylmethyl)oxy]phenyl}methyl)-N-methyl-1,3-thiazole-4-carboxamide]",≤ 1000,> 1000
"O=C(Nc1nnn[nH]1)c1csc(Cc2cc(Cl)ccc2OCc2ccccc2)n1 [Example 98, 2-({5-Chloro-2-[(phenylmethyl)oxy]phenyl}methyl)-N-1H-tetrazol-5-yl-1,3-thiazole-4-carboxamide]",≤ 1000,≤ 31.6
"O=C(Nc1ccccn1)c1csc(Cc2cc(Cl)ccc2OCc2ccccc2)n1 [Example 99, 2-({5-Chloro-2-[(phenylmethyl)oxy]phenyl}methyl)-N-2-pyridinyl-1,3-thiazole-4-carboxamide]",≤ 1000,> 1000
"O=C(NS(=O)(=O)c1ccccc1)c1csc(Cc2cc(Cl)ccc2OCc2ccc(F)cc2)n1 [Example 101, 2-[(5-Chloro-2-{[(4-fluorophenyl)methyl]-oxy}phenyl)methyl]-N-(phenylsulfonyl)-1,3-thiazole-4-carboxamide]",≤ 31.6,< 1000
"O=C(NS(=O)(=O)c1ccccc1)c1csc(Cc2cc(Cl)ccc2OCc2ccc(F)cc2F)n1 [Example 102, 2-[(5-Chloro-2-{[(2,4-difluorophenyl)methyl]oxy}phenyl)methyl]-N-(phenylsulfonyl)-1,3-thiazole-4-carboxamide]",≤ 31.6,< 1000
"O=C(NS(=O)(=O)c1ccccc1)c1csc(Cc2cc(Cl)ccc2OCc2ccccc2F)n1 [Example 103, 2-[(5-Chloro-2-{[(2-fluorophenyl)methyl]-oxy}phenyl)methyl]-N-(phenylsulfonyl)-1,3-thiazole-4-carboxamide]",≤ 31.6,< 1000
"O=C(NS(=O)(=O)c1ccccc1)c1csc(Cc2cc(Cl)ccc2OCc2ccccc2Cl)n1 [Example 104, 2-[(5-Chloro-2-{[(2-chlorophenyl)methyl]-oxy}phenyl)methyl]-N-(phenylsulfonyl)-1,3-thiazole-4-carboxamide]",≤ 31.6,< 1000
"O=C(NS(=O)(=O)c1ccccc1)c1csc(Cc2cc(Cl)ccc2OCc2ccc(Cl)cc2F)n1 [Example 105, 2-[(5-Chloro-2-{[(4-chloro-2-fluorophenyl)methyl]-oxy}phenyl)methyl]-N-(phenylsulfonyl)-1,3-thiazole-4-carboxamide]",≤ 31.6,< 1000
"O=C(NS(=O)(=O)c1ccccc1)c1csc(Cc2cc(Cl)ccc2OCc2cc(F)c(F)cc2F)n1 [Example 106, 2-[(5-Chloro-2-{[(2,4,5-trifluorophenyl)methyl]oxy}phenyl)methyl]-N-(phenylsulfonyl)-1,3-thiazole-4-carboxamide]",≤ 31.6,≤ 31.6
"CS(=O)(=O)NC(=O)c1csc(Cc2cc(Cl)ccc2OCc2ccc(F)cc2)n1 [Example 107, 2-[(5-Chloro-2-{[(4-fluorophenyl)methyl]-oxy)phenyl)methyl]-N-(methylsulfonyl)-1,3-thiazole-4-carboxamide]",≤ 31.6,< 1000
"Cc1noc(C)c1S(=O)(=O)NC(=O)c1csc(Cc2cc(Cl)ccc2OCc2ccccc2)n1 [Example 108, 2-({5-Chloro-2-[(phenylmethyl)oxy]-phenyl}methyl)-N-[(3,5-dimethyl-4-isoxazolyl)sulfonyl]-1,3-thiazole-4-carboxamide]",≤ 31.6,≤ 31.6
"CC(C)(C)OC(=O)Nc1csc(Cc2cc(Cl)ccc2OCc2ccccc2)n1 [Example 110, 1,1-Dimethylethyl [2-({5-chloro-2-[(phenylmethyl)oxy]phenyl}methyl)-1,3-thiazol-4-yl]carbamate]",≤ 1000,> 1000
"CC(C)COc1ccc(Cl)cc1Cc1nc(NC(=O)OC(C)(C)C)cs1 [Example 111, 1,1-Dimethylethyl [2-({5-chloro-2-[(2-methylpropyl)oxy]phenyl}methyl)-1,3-thiazol-4-yl]carbamate]",≤ 1000,< 1000
"O=C(Nc1csc(Cc2cc(Cl)ccc2OCc2ccccc2)n1)c1ccc(CO)cc1 [Example 112, N-[2-({5-chloro-2-[(phenylmethyl)oxy]phenyl}methyl)-1,3-thiazol-4-yl]-4-(hydroxymethyl)benzamide]",≤ 1000,> 1000
"O=C(Nc1csc(Cc2cc(Cl)ccc2OCc2ccccc2)n1)c1ccc(CN2CCCCC2)cc1 [Example 113, N-[2-({5-Chloro-2-[(phenylmethyl)oxy]phenyl}methyl)-1,3-thiazol-4-yl]-4-(1-piperidinylmethyl)benzamide]",≤ 1000,< 1000
"CN1CCN(Cc2ccc(C(=O)Nc3csc(Cc4cc(Cl)ccc4OCc4ccccc4)n3)cc2)CC1 [Example 114, N-[2-({5-chloro-2-[(phenylmethyl)oxy]-phenyl}methyl)-1,3-thiazol-4-yl]-4-[(4-methyl-1-piperazinyl)methyl]-benzamide]",≤ 1000,< 1000
"CN1CCN(CCc2ccc3nc(-c4csc(Cc5cc(Cl)ccc5OCc5ccccc5)n4)[nH]c3c2)CC1 [Example 115, 2-[2-({5-chloro-2-[(phenylmethyl)oxy]-phenyl}methyl)-1,3-thiazol-4-yl]-5-[2-(4-methyl-1-piperazinyl)ethyl]-1H-benzimidazole]",≤ 31.6,< 1000
"CC(C)COc1ccc(Cl)cc1Cc1nc(-c2nc3ccc(CCN(C)C)cc3[nH]2)cs1 [Example 116, (2-{2-[2-({5-Chloro-2-[(2-methylpropyl)oxy]-phenyl}methyl)-1,3-thiazol-4-yl]-1H-benzimidazol-5-yl}ethyl)dimethylamine]",≤ 31.6,< 1000
"CC(C)COc1ccc(Cl)cc1Cc1nc(-c2nc3ccc(CCN4CCN(C)CC4)cc3[nH]2)cs1 [Example 117, 2-[2-({5-Chloro-2-[(2-methylpropyl)oxy]phenyl}-methyl)-1,3-thiazol-4-yl]-5-(2-(4-methyl-1-piperazinyl)ethyl]-1H-benzimidazole]",≤ 31.6,< 1000
"CN(C)Cc1ccc(NC(=O)c2csc(Cc3cc(Cl)ccc3OCc3ccccc3)n2)cc1 [Example 118, 2-({5-Chloro-2-[(phenylmethyl)oxy]phenyl}methyl)-N-{4-[(dimethylamino)methyl]phenyl}-1,3-thiazole-4-carboxamide hydrochloride]",≤ 1000,> 1000
"O=C(Nc1ccc(CN2CCCC2)cc1)c1csc(Cc2cc(Cl)ccc2OCc2ccccc2)n1 [Example 119, 2-({5-Chloro-2-[(phenylmethyl)oxy]phenyl}-methyl)-N-[4-(1-pyrrolidinylmethyl)phenyl]-1,3-thiazole-4-carboxamidehydrochloride]",≤ 1000,> 1000
"O=C(Nc1ccc(CN2CCOCC2)cc1)c1csc(Cc2cc(Cl)ccc2OCc2ccccc2)n1 [Example 120, 2-({5-Chloro-2-[(phenylmethyl)oxy]phenyl}-methyl)-N-[4-(4-morpholinylmethyl)phenyl]-1,3-thiazole-4-carboxamidehydrochloride]",≤ 1000,> 1000
